From US20260365670A1, “EGFR INHIBITORS AND USES THEREOF” (DIZAL (JIANGSU) PHARMACEUTICAL CO., LTD., priority 2022, published 2026)
Read-outs that look alike come from different tables or passages of the source.

Columns and labels:
PC-9 = assay: Cell proliferation assay, PC-9 cells (CellTiter-Glo, 72 hours); format: cell-based; conditions: PC9 cells, CellTiter-Glo, read-out: PC9 GI50
Procedure, shortened: (§1)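 Cells are exposed to graded compound concentrations after overnight plating, using 500 PC-9 or 5000 Ba/F3 per well. Baseline-subtracted viability is compared with vehicle to give percent proliferation, then GI50.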

EGFR Exon19Del/T790M = biological target: T1, EGFR Exon19Del/T790M (Homo sapiens, UniProt P00533, DEL746-750/T790M); assay: Inhibition of EGFR Exon19Del/T790M biochemical enzymatic activity (HTRF); conditions: EGFR Del19-T790M, 1 mM ATP, 1 h, room temperature, read-out: IC50 (nM) @Del19-T790M
T1 construct: purchased Carna Bio
Procedure, shortened: (§2)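 For IC50 determination by four-parameter logistic fit, EDTA-quenched 1 h room-temperature reactions (1 mM ATP, 1 μM TK Substrate-biotin) were read by HTRF. The 665/615 nm emission ratio after 320 nm excitation served as the activity signal.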

EGFR (C797S L858R) = biological target: T2, EGFR (C797S L858R) (Homo sapiens, UniProt P00533, C797S/L858R); assay: Inhibition of EGFR (C797S L858R) biochemical enzymatic activity (HTRF); conditions: EGFR L858-C797S, 1 mM ATP, 1 h, room temperature, read-out: IC50 (nM) @L858-C797S
T2 construct: purchased signalchem
T2 sequence (P00533 25-1210 C797S/L858R): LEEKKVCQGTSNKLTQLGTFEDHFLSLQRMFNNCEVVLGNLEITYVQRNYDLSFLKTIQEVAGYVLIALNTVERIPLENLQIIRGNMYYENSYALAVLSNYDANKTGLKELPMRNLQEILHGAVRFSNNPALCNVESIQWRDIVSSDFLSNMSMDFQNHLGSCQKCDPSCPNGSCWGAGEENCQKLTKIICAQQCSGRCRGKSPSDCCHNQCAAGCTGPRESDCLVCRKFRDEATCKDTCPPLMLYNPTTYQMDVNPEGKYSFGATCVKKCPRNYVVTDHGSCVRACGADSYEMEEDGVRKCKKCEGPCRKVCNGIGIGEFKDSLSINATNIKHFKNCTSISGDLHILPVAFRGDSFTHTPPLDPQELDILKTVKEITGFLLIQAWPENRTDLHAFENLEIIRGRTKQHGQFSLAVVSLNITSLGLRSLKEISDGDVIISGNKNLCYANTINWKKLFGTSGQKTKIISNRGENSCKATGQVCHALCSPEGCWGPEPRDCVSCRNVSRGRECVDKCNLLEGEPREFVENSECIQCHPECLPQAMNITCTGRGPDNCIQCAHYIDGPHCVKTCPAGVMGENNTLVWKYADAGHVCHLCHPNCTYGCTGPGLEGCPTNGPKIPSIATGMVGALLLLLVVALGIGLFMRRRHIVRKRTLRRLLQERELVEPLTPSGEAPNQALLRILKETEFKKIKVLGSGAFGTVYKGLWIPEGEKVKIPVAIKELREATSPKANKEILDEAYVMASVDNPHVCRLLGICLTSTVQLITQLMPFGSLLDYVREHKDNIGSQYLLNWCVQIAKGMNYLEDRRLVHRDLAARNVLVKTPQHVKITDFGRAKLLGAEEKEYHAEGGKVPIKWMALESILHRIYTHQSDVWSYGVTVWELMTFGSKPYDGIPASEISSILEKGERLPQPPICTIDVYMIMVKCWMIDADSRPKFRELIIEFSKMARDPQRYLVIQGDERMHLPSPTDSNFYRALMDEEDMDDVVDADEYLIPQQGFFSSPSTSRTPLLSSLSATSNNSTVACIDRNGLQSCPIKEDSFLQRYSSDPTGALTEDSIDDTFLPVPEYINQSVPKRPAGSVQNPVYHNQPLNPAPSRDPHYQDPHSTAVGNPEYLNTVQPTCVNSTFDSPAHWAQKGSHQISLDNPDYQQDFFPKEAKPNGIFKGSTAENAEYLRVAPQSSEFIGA
Procedure, shortened: as §2

EGFR (d746-750 C797S) = biological target: T3, EGFR (d746-750 C797S) (Homo sapiens, UniProt P00533, C797S/DEL746-750); assay: Inhibition of EGFR (d746-750 C797S) biochemical enzymatic activity (HTRF); conditions: EGFR Del19-C797S, 1 mM ATP, 1 h, room temperature, read-out: IC50 (nM) @Del19-C797S
T3 construct: purchased signalchem
T3 sequence (P00533 with tags, fused parts or gaps DEL746-750/C797S limits assumed): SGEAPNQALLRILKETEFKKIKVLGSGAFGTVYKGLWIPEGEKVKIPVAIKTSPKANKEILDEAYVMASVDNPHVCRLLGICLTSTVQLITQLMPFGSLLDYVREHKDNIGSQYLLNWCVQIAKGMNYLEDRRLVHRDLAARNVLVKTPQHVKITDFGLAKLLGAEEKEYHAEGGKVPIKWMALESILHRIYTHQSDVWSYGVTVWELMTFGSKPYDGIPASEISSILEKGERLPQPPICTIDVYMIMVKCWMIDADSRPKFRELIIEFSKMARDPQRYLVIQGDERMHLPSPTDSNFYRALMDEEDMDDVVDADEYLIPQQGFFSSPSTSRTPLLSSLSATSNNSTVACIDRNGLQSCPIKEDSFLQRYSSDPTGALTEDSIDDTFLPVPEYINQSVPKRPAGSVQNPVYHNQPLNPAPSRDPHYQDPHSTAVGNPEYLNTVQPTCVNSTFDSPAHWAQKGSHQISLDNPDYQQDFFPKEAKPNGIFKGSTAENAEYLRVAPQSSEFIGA
Procedure, shortened: as §2

EGFR L858R/T790M = biological target: T4, EGFR L858R/T790M (Homo sapiens, UniProt P00533, L858R/T790M); assay: Inhibition of EGFR L858R/T790M biochemical enzymatic activity (HTRF); conditions: EGFR L858R-T790M, 1 mM ATP, 1 h, room temperature, read-out: IC50 (nM) @L858R-T790M
T4 construct: purchased Carna Bio
Procedure, shortened: as §2

EGFR Exon19Del = biological target: T5, EGFR Exon19Del (Homo sapiens, UniProt P00533, DEL746-750); assay: Inhibition of EGFR Exon19Del biochemical enzymatic activity (HTRF); conditions: EGFR Del19, 1 mM ATP, 1 h, room temperature, read-out: IC50 @Del19
T5 construct: purchased Carna Bio
Procedure, shortened: as §2

EGFR[T790M/C797S/L858R] = biological target: T6, EGFR[T790M/C797S/L858R] (Homo sapiens, UniProt P00533, C797S/L858R/T790M); assay: Inhibition of EGFR[T790M/C797S/L858R] biochemical enzymatic activity (HTRF); conditions: EGFR T790M-C797S-L858R, 1 mM ATP, 1 h, room temperature, read-out: IC50 (nM) @T790M- C797S - L858R
T6 construct: purchased Carna Bio
T6 sequence (P00533 25-1210 T790M/C797S/L858R): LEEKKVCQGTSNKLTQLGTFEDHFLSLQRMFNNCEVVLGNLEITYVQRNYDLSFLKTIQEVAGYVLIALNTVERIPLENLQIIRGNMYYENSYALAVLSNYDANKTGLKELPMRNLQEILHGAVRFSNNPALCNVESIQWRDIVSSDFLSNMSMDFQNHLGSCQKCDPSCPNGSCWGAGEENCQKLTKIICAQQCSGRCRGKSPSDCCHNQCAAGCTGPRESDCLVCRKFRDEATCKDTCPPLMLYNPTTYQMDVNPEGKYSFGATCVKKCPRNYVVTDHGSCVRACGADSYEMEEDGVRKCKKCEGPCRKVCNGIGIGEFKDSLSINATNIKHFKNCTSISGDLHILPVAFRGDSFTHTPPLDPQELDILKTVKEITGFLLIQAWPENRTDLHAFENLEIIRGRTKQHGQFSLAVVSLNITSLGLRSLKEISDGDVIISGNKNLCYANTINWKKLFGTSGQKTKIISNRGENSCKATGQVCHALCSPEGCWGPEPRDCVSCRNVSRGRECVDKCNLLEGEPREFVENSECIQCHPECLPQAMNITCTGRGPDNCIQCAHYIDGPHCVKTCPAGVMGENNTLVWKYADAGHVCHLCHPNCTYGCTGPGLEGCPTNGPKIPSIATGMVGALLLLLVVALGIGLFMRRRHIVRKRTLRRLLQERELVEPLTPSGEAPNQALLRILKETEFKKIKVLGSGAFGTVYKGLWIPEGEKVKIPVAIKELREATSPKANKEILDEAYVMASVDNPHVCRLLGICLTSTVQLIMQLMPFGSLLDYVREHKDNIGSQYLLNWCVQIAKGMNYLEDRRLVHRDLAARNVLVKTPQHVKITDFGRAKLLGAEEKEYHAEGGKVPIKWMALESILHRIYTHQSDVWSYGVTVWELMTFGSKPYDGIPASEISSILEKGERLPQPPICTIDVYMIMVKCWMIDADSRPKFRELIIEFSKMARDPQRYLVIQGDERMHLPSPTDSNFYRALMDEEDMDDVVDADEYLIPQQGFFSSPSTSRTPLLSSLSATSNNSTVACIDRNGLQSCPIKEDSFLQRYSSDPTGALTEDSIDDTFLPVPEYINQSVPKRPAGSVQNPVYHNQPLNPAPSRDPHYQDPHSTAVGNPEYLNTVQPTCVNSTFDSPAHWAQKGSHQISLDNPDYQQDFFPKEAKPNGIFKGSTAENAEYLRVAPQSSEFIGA
Procedure, shortened: as §2

[1] = biological target: T7, EGFR[T790M/C797S/d746-750] (Homo sapiens, UniProt P00533, C797S/DEL746-750/T790M); assay: Inhibition of EGFR[T790M/C797S/d746-750] biochemical enzymatic activity (HTRF); conditions: EGFR T790M-C797S-Del19, 1 mM ATP, 1 h, room temperature, read-out: IC50 (nM) @T790M - C797S - Del19
T7 construct: purchased Carna Bio
T7 sequence (P00533 with tags, fused parts or gaps DEL746-750/T790M/C797S limits assumed): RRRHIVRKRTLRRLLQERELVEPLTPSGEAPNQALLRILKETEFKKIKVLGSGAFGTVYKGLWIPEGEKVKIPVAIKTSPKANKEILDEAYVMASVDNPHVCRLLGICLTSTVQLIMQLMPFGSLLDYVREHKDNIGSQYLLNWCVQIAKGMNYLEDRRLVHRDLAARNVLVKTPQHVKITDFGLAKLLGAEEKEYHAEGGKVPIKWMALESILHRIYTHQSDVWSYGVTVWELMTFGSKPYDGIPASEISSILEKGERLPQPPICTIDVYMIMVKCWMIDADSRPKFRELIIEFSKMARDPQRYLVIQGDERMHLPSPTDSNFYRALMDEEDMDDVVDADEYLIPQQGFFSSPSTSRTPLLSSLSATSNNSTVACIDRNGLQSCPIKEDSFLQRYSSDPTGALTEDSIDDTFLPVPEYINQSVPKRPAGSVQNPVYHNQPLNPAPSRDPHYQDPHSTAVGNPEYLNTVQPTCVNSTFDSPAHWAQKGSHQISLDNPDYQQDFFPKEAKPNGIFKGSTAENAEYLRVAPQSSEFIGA
Procedure, shortened: as §2

[2] = system: Ba/F3 cells expressing EGFR mutations; assay: Cell proliferation assay, Ba/F3 cells expressing EGFR mutations (CellTiter-Glo, 72 hours); format: cell-based; conditions: CellTiter-Glo
Procedure, shortened: as §1

EGFR L858R = biological target: T8, EGFR L858R (Homo sapiens, UniProt P00533, L858R); assay: Inhibition of EGFR L858R biochemical enzymatic activity (HTRF); conditions: 1 mM ATP, 1 h, room temperature, read-out: IC50 (nM) @L858R
T8 construct: purchased Carna Bio
T8 sequence (P00533 25-1210 L858R): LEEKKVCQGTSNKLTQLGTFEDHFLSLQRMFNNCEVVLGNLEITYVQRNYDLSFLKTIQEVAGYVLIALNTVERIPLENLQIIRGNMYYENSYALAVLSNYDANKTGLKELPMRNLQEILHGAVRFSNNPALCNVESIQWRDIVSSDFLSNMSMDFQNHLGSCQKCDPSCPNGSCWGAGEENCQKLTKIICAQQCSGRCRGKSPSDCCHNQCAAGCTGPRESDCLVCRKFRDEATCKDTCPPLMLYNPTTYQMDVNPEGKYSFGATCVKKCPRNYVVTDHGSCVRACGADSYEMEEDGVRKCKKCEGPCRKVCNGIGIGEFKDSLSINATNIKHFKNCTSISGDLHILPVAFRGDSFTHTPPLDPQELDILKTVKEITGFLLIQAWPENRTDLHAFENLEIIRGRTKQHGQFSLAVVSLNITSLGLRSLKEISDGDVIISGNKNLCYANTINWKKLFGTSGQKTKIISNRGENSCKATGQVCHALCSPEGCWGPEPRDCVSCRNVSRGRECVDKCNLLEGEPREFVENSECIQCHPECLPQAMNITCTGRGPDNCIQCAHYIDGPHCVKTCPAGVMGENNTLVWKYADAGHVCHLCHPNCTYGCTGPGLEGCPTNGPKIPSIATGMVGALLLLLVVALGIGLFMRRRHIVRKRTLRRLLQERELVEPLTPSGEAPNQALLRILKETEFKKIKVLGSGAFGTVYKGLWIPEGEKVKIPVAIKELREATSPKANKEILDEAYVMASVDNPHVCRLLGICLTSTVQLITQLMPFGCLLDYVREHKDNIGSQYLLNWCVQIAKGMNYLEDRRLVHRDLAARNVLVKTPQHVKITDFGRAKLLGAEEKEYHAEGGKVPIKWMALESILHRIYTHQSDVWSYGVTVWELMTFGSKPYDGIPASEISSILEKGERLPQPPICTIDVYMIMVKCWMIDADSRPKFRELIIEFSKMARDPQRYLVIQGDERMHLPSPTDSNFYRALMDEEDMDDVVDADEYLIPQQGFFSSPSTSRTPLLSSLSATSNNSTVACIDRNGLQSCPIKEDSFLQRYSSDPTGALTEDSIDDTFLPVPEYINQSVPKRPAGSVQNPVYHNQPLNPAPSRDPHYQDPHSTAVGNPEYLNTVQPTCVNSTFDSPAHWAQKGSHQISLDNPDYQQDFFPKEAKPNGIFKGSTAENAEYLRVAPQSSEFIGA
Procedure, shortened: as §2

EGFR wild type = biological target: T9, EGFR wild type (Homo sapiens, UniProt P00533); assay: Inhibition of EGFR wild type biochemical enzymatic activity (HTRF); conditions: EGFR WT, 1 mM ATP, 1 h, room temperature, read-out: IC50 (nM) @WT
T9 construct: purchased Carna Bio
Procedure, shortened: as §2

A-431 = assay: Cell proliferation GI50, A-431 cells (Table 6); format: cell-based
[3] = BaF3 cells, EGFR DEL19-C797S, read-out: DEL19-C797S/BaF3 GI50
[4] = BaF3 cells, EGFR DEL19-T790-C797S, read-out: DEL19-T790-C797S/BaF3 GI50
[5] = BaF3 cells, EGFR L858R, read-out: L858R/BaF3 GI50
[6] = BaF3 cells, EGFR L858R-C797S, read-out: L858R-C797S/BaF3 GI50
[7] = BaF3 cells, EGFR L858R-T790-C797S, read-out: L858R-T790-C797S/BaF3 GI50
[8] = BaF3 cells, EGFR L858R-T790M, read-out: L858R-T790M/BaF3 GI50
[9] = EGFR DEL19-T790M, read-out: DEL19-T790M GI50
[10] = Homo sapiens, A-431, A-431 cells

GI50 (PC-9) [nM] | IC50 (EGFR Exon19Del/T790M) [nM] | IC50 (EGFR (C797S L858R)) [nM] | IC50 (EGFR (d746-750 C797S)) [nM] | IC50 (EGFR L858R/T790M) [nM] | IC50 (EGFR Exon19Del) [nM] | IC50 (EGFR[T790M/C797S/L858R]) [nM] | IC50 [1] [nM] | GI50 [2, 3] [nM] | GI50 [2, 4] [nM] | GI50 [2, 5] [nM] | GI50 [2, 6] [nM] | GI50 [2, 7] [nM] | GI50 [2, 8] [nM] | GI50 [2, 9] [nM] | IC50 (EGFR L858R) [nM] | IC50 (EGFR wild type) [nM] | GI50 (A-431; A-431 cells) [nM] | GI50 (A-431; [10]) [nM] | Structure (SMILES)
29 | 3.9 | 9.8 | 2.4 | 4.6 | 3.1 | 4.4 | 3.3 | 0.77 | 13 | 14 | 16 | 31 | 40 | 14 | 21 | 196 | 1770 | – | CN(C)C1CN(c2ccc3nc4n(c3c2)C23CCC(CN(CCOc5c(cnn5C)-c5cc(cn(C)c5=O)C(=O)N4)C2)C3)CC1F (single isomer, unassigned) [Example A84D, 15,21-Dimethyl-5-[4-fluoro-3-(N,N-dimethylamino)pyrrolidinyl]-23-oxa-2,9,11,15,20,21,26-heptaazaheptacyclo[24.4.1.1^{1,28}.1^{13,17}.0^{2,10}.0^{3,8}.0^{18,22}]tritriaconta-3,5,7,9,13,17(33),18(22),19-octaene-12,16-dione]
12 | 2.2 | 5.5 | 1.6 | 3.1 | 1.2 | 3.1 | 2.2 | 0.5 | 1.1 | 0.78 | 1.6 | 1.2 | 7.7 | 1.3 | 11 | 84 | – | 969 | CN(C)CCN(C)c1ccc2nc3n(c2c1)C12CCC(CN(CCOc4c(cnn4C)-c4cc(cn(C)c4=O)C(=O)N3)C1)C2 (single isomer, unassigned) [Example A85B]
26 | 9.5 | 14 | 3.9 | 12 | 4 | 8.1 | 8.5 | 0.71 | 1.9 | 2.4 | 5.2 | 4.2 | 10 | 1.2 | 16 | 110 | – | 2670 | CN1CCOC2(C1)CN(c1ccc3nc4n(c3c1)C13CCC(CN(CCOc5c(cnn5C)-c5cc(cn(C)c5=O)C(=O)N4)C1)C3)C2 (single isomer, unassigned) [Example A86B]
452 | > 5000 | > 5000 | 995 | > 5000 | 842 | > 5000 | 4000 | 61 | 238 | 178 | 124 | 233 | 311 | 192 | 4480 | > 5000 | 382 | – | Cn1ncc2c1OCCN1CC3CCC(C3)(C1)n1c(nc3ccc(N4CCC(N5CC(F)C5)CC4)cc31)NC(=O)c1cc-2c(=O)n(C)c1 (single isomer, unassigned) [Example A87A]
25 | 9.5 | 8.9 | 4.1 | 8.8 | 2.8 | 8.7 | 8.6 | 0.7 | 4 | 4.6 | 7.9 | 7.7 | 13 | 3.4 | 9.3 | 36 | 5970 | – | Cn1ncc2c1OCCN1CC3CCC(C3)(C1)n1c(nc3ccc(N4CCC(N5CC(F)C5)CC4)cc31)NC(=O)c1cc-2c(=O)n(C)c1 (single isomer, unassigned) [Example A87B]
611 | > 5000 | > 5000 | 1160 | > 5000 | 477 | > 5000 | > 5000 | 57 | 159 | 119 | 100 | 252 | 361 | 163 | > 5000 | > 5000 | 6260 | – | CN1CCC2(CC1)CCN(c1ccc3nc4n(c3c1)C13CCC(CN(CCOc5c(cnn5C)-c5cc(cn(C)c5=O)C(=O)N4)C1)C3)C2 (single isomer, unassigned) [Example A88A]
21 | 4.9 | 4.2 | 2.2 | 4.9 | 2.5 | 2.8 | 4.6 | 0.63 | 1 | 0.84 | 3.4 | 1.7 | 8.8 | 1 | 4.8 | 12 | 2200 | – | CN1CCC2(CC1)CCN(c1ccc3nc4n(c3c1)C13CCC(CN(CCOc5c(cnn5C)-c5cc(cn(C)c5=O)C(=O)N4)C1)C3)C2 (single isomer, unassigned) [Example A88B]
791 | > 5000 | > 5000 | 573 | > 5000 | 250 | > 5000 | > 5000 | 103 | 178 | 135 | 165 | 280 | 367 | 115 | 3600 | > 5000 | 6390 | – | CN(C)CCCN(C)c1ccc2nc3n(c2c1)C12CCC(CN(CCOc4c(cnn4C)-c4cc(cn(C)c4=O)C(=O)N3)C1)C2 (single isomer, unassigned) [Example A89A]
28 | 3.8 | 11 | 2.2 | 7.4 | 1.9 | 5.4 | 4 | 0.57 | 3.2 | 2.2 | 3.8 | 4.1 | 9.2 | 2.6 | 16 | 134 | 1700 | – | CN(C)CCCN(C)c1ccc2nc3n(c2c1)C12CCC(CN(CCOc4c(cnn4C)-c4cc(cn(C)c4=O)C(=O)N3)C1)C2 (single isomer, unassigned) [Example A89B]
2100 | > 5000 | > 5000 | 749 | > 5000 | 1710 | > 5000 | > 5000 | 128 | 393 | 540 | 249 | 721 | 977 | 321 | > 5000 | > 5000 | – | 4270 | COCCN(C)c1ccc2nc3n(c2c1)C12CCC(CN(CCOc4c(cnn4C)-c4cc(cn(C)c4=O)C(=O)N3)C1)C2 (single isomer, unassigned) [Example A90A]
